Measured values from patent US20100331348A1, “TROPANE DERIVATIVES USEFUL AS PESTICIDES” (SYNGENTA CROP PROTECTION, INC., priority 2007, published 2010).
Where two headings read alike, the source gives them in different places.

What was measured:
[1] = test system: Plasmopara viticola; assay: Plasmopara viticola (downy mildew of grapevine) leaf disk assay; format: in vivo; conditions: foliar, 168 h, preventive, seven days after inoculation, read-out: control of fungal infection, Plasmopara viticola
[2] = test system: Puccinia recondita f.sp. tritici; assay: Puccinia recondita f.sp. tritici (wheat brown rust) leaf disk assay; format: in vivo; conditions: foliar, 216 h, preventive, nine days after inoculation, read-out: control of fungal infection, Puccinia recondita f.sp. tritici
[3] = test system: Septoria tritici; assay: Septoria tritici (leaf blotch) growth inhibition in nutrient broth; format: cell-based; conditions: Zymoseptoria tritici, 72 hrs, read-out: control of fungal infection, Septoria tritici
[4] = test system: Pyricularia oryzae; assay: whole plant or invertebrate; format: in vivo; conditions: foliar, 96 h
[5] = test system: Erysiphe graminis f.sp. tritici; assay: Erysiphe graminis f.sp. tritici (wheat powdery mildew) leaf disk assay; format: in vivo; conditions: Blumeria graminis, foliar, 96 h, preventive, four days after inoculation, read-out: control of fungal infection, Erysiphe graminis fsp. tritici
[6] = test system: Tetranychus urticae; conditions: foliar, 192 h, read-out: control of Tetranychus urticae
[7] = test system: Spodoptera littoralis; assay: Spodoptera littoralis (Egyptian cotton leafworm) cotton leaf disc test; conditions: in Gossypium hirsutum, foliar, 72 h, read-out: control of Spodoptera littoralis
[8] = test system: Heliothis virescens; assay: Heliothis virescens (Tobacco budworm) egg test on artificial diet; conditions: 96 h, read-out: control of Heliothis virescens
[9] = test system: Plutella xylostella; assay: Plutella xylostella (Diamond back moth) artificial diet test; conditions: 120 h, read-out: control of Plutella xylostella
[10] = test system: Aedes aegypti; assay: Aedes aegypti (Yellow fever mosquito) larvae test; format: in vivo; conditions: 48 h
[11] = test system: Phytophthora infestans; assay: whole plant or invertebrate; format: in vivo; conditions: foliar, 96 h, read-out: control of fungal infection, Phytophthora infestans
[12] = test system: Myzus persicae; assay: Myzus persicae (Green peach aphid) sunflower leaf disc test; conditions: foliar, 144 h, read-out: control of Myzus persicae
[13] = read-out: control of fungal infection, Pyricularia oryzae (at least 60% list)
[14] = read-out: control of fungal infection, Pyricularia oryzae (at least 80% list)

| Structure (SMILES) | pest or weed control at 200 ppm [1] [%] | pest or weed control at 200 ppm [2] [%] | inhibition of growth at 200 ppm [3] [%] | pest or weed control at 200 ppm [4, 13] [%] | pest or weed control at 200 ppm [4, 14] [%] | melting point [°C] | pest or weed control at 200 ppm [5] [%] | pest or weed control at 200 ppm [6] [%] | pest or weed control at 200 ppm [7] [%] | pest or weed control at 200 ppm [8] [%] | pest or weed control at 200 ppm [9] [%] | pest or weed control at 2 ppm [10] [%] | pest or weed control at 200 ppm [11] [%] | pest or weed control at 200 ppm [12] [%] |
| --- | --- | --- | --- | --- | --- | --- | --- | --- | --- | --- | --- | --- | --- | --- |
| CCc1ncnc(N2[C@@H]3CC[C@H]2CC(O)(COc2ccc(C)cc2)C3)c1Cl (some centres unmarked) [Example 1.159] | ≥ 80 | ≥ 80 | ≥ 60 |  |  |  |  |  |  |  |  |  |  |  |
| FC(F)(F)c1cccc(OC2C[C@H]3CC[C@@H](C2)N3c2ncnc3ccsc23)n1 (some centres unmarked) [Example 2.78] |  | ≥ 80 | ≥ 60 | ≥ 60 | ≥ 80 | 109 |  |  |  |  |  |  |  |  |
| Cc1csc2c(N3[C@@H]4CC[C@H]3CC(Oc3cccc(C(F)(F)F)n3)C4)ncnc12 (some centres unmarked) [Example 2.82] |  |  | ≥ 60 | ≥ 60 |  | 123 | ≥ 80 |  |  |  |  |  |  |  |
| CCc1ncnc(N2[C@@H]3CC[C@H]2CC(O/N=C(\C)c2cccnc2)C3)c1Cl (some centres unmarked) [Example 2.97] | ≥ 80 |  | ≥ 60 | ≥ 60 |  |  |  | ≥ 80 |  |  |  |  |  |  |
| CCc1ncnc(N2C3CCC2CC(=Cc2ccc(C)cc2)C3)c1Cl [Example 3.7] |  | ≥ 80 |  |  |  |  |  | ≥ 80 | ≥ 80 | ≥ 80 | ≥ 80 | ≥ 80 |  |  |
| CCOC(=O)C=C1CC2CCC(C1)N2c1ncnc(CC)c1Cl [Example 3.8] |  | ≥ 80 | ≥ 60 |  |  |  |  |  |  | ≥ 80 |  | ≥ 80 |  |  |
| CCc1ncnc(N2C3CCC2CC(=Cc2ccc(OC)cc2)C3)c1Cl [Example 3.9] |  |  |  | ≥ 60 | ≥ 80 |  |  | ≥ 80 | ≥ 80 | ≥ 80 | ≥ 80 | ≥ 80 |  |  |
| CCc1ncnc(N2C3CCC2CC(=CCOc2cc(C)nc(C)n2)C3)c1Cl [Example 3.15] |  | ≥ 80 | ≥ 60 |  | ≥ 80 |  |  |  |  | ≥ 80 |  | ≥ 80 |  |  |
| Clc1ccc(C=C2CC3CCC(C2)N3c2ncnc3sccc23)cc1 [Example 3.20] | ≥ 80 | ≥ 80 |  | ≥ 60 | ≥ 80 |  |  | ≥ 80 | ≥ 80 | ≥ 80 | ≥ 80 | ≥ 80 |  |  |
| C(=C1CC2CCC(C1)N2c1ncnc2sccc12)c1ccccc1 [Example 3.27] | ≥ 80 | ≥ 80 |  | ≥ 60 | ≥ 80 |  |  | ≥ 80 | ≥ 80 | ≥ 80 | ≥ 80 | ≥ 80 | ≥ 80 |  |
| Cc1ccc(OCC=C2CC3CCC(C2)N3c2ncnc3sccc23)cn1 [Example 3.29] | ≥ 80 | ≥ 80 |  |  | ≥ 80 |  |  |  |  | ≥ 80 | ≥ 80 | ≥ 80 | ≥ 80 | ≥ 80 |
| CCCCCC(=O)C=C1CC2CCC(C1)N2c1ncnc2sccc12 [Example 3.35] | ≥ 80 | ≥ 80 | ≥ 60 | ≥ 60 | ≥ 80 |  |  |  |  |  | ≥ 80 | ≥ 80 |  |  |
| CCc1ncnc(N2C3CCC2CC(=NOCc2ccc(Cl)cc2)C3)c1Cl [Example 5.21] |  | ≥ 80 |  |  | ≥ 80 |  | ≥ 80 |  |  | ≥ 80 | ≥ 80 | ≥ 80 | ≥ 80 | ≥ 80 |
